US9718785B2, “1,3-Disubstituted cyclopentane derivatives” (MERCK PATENT GMBH, priority 2013, dated 2017)

These compounds were tested against T1, human recombinant full-length fatty acid synthase (FASN) (Homo sapiens, UniProt P49327) (assay: Biochemical activity testing of human fatty acid synthase FASN (NADPH fluorescence intensity enzyme assay)). Details: human recombinant FASN, enzyme assay.
T1 construct: 40 nM human recombinant full-length fatty acid synthase (produced in-house in SF9 cells); made in house; host or cells: SF9 insect cells
T1 sequence (P49327 whole entry): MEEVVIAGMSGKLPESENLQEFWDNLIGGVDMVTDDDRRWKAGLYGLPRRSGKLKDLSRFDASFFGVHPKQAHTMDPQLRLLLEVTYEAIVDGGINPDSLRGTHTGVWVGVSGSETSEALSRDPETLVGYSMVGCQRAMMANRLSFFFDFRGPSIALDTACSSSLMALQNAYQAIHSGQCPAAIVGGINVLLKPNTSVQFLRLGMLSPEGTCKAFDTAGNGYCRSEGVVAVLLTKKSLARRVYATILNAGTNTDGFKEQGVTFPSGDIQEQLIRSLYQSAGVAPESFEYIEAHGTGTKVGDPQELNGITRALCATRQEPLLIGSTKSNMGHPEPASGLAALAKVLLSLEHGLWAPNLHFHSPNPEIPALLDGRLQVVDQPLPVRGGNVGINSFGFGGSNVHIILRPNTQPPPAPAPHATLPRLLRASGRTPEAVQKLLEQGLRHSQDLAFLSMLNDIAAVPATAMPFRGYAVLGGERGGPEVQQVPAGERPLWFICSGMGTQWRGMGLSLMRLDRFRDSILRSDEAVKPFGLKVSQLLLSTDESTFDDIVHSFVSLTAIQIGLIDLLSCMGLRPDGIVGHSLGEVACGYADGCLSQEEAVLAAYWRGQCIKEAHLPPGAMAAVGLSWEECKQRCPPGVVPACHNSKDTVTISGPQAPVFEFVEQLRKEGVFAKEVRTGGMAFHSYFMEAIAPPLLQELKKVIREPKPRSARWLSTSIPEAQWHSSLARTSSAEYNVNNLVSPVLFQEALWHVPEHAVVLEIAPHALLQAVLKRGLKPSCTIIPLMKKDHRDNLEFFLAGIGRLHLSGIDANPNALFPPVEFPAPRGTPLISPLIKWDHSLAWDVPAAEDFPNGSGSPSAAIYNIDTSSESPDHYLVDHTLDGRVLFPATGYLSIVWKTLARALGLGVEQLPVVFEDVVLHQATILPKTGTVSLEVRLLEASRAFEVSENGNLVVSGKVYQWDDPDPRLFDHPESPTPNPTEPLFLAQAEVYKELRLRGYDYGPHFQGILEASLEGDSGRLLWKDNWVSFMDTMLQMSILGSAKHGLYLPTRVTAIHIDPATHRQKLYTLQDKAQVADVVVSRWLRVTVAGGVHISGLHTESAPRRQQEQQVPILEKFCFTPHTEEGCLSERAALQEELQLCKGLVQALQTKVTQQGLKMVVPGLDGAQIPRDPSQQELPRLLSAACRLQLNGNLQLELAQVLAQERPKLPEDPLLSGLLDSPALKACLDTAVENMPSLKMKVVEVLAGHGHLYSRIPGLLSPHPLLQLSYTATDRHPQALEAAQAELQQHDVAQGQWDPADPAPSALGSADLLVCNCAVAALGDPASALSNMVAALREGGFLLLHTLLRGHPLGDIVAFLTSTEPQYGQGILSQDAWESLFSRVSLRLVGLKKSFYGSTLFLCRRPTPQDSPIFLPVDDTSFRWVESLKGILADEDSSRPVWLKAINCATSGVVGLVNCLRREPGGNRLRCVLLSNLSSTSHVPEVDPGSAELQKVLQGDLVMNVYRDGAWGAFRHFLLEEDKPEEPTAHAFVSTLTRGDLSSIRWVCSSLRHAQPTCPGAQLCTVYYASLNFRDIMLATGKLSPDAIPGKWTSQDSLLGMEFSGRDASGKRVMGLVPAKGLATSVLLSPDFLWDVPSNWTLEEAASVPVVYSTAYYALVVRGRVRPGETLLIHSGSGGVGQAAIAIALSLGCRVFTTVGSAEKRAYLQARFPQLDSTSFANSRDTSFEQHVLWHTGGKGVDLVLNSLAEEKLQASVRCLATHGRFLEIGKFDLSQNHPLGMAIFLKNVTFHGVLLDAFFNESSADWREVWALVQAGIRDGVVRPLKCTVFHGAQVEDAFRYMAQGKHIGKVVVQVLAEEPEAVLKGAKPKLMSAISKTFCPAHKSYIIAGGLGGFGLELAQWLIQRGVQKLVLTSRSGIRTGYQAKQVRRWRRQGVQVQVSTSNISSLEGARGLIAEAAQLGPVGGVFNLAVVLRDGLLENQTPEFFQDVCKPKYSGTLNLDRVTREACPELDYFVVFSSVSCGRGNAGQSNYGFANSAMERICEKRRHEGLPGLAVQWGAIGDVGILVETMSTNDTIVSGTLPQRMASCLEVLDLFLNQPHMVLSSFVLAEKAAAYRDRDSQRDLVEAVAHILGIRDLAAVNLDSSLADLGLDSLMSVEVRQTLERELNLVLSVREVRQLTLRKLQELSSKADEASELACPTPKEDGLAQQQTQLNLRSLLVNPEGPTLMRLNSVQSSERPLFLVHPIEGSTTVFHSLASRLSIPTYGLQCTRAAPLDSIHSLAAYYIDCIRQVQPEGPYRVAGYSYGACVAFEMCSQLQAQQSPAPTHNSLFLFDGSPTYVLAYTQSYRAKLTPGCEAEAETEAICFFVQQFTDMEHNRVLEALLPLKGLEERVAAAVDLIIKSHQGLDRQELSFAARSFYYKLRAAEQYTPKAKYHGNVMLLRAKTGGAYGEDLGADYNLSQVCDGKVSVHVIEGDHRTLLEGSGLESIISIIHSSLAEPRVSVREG
From the text: Biochemical Activity Testing of Human Fatty Acid Synthase FASN
Fatty acid synthase FASN is a multifunctional enzyme with seven catalytic activities thereby synthesising long chain fatty acids especially palmitoyl-CoA in the presence of co-factor NADPH starting from the substrates acetyl-CoA and malonyl-CoA. The reductive synthesis is realized by the oxidation of NADPH to NADP. Since NADPH has a high fluorescence intensity quantum yield compared to NADP with excitation at 340 nm and emission at 460 nm, the reaction can be monitored via the decrease in fluorescence intensity. The biochemical FASN activity testing was performed as 384 well two-time-point kinetic fluorescence intensity assay format in Greiner low volume medium binding 384-well black microtiter plates in a total assay volume of 8 μl and was used for high throughput screen. In each well 3 μl 40 nM human recombinant full-length fatty acid synthase (produced in-house in SF9 cells) were dispensed in the following assay buffer: 50 mM potassium phosphate buffer pH 7.0, 0.005% (w/v) BSA, 2 mM Glutathione, 0.02% Tween-20. Then 2 μl of 200 μM NADPH in assay buffer were added, followed by the addition of the test compounds in 10 dilution concentrations starting with 30 μM (final concentration) to get a final DMSO content of 1% (v/v). The mixture was incubated for at least 15 min at room temperature. After the pre-incubation the enzymatic reaction was started by the addition of 2 μl substrate solution (80 μM acetyl-CoA, 240 μM malonyl-CoA). A first fluorescence intensity measurement (time point one) was performed with an Envision multimode reader (Perkin Elmer LAS Germany GmbH) at excitation wavelength 340 nm (lamp mode) and emission wavelength 460 nm. The reaction was incubated for 30 minutes at room temperature. After this the fluorescence intensity was measured again in the Envision using the same parameters as described above (second time point measurement). The data were analysed by subtracting the first time point measurement value from the second time point measurement value (after the enzymatic reaction). The differences of the emission signals were determined. These reflect directly the conversion rate of NADPH. The full value used was the inhibitor-free reaction. A pharmacological zero value was used like GSK837149A (Sigma-Aldrich) in a final concentration of 5-10 μM. The inhibitory values (IC50) were determined using either the program Symyx Assay Explorer® or Condosseo® from GeneData.
CCC(=O)N[C@H]1CC[C@@H](n2nncc2-c2ccc(-c3ccc(C#N)c(F)c3)cc2)C1 [Compound A80, N-{(1S,3R)-3-[5-(4′-Cyano-3′-fluoro-biphenyl-4-yl)-[1,2,3]triazol-1-yl]-cyclopentyl}-propionamide] was tested, and the IC50 was < 300 nM.
In the case of CCC(=O)N[C@H]1CC[C@@H](n2nncc2-c2ccc(-c3ccc(Cl)cc3F)cc2)C1 [Compound A81, N-{(1S,3R)-3-[5-(4′-Chloro-2′-fluoro-biphenyl-4-yl)-[1,2,3]triazol-1-yl]-cyclopentyl}-propionamide], the IC50 is reported as < 300 nM.
CCC(=O)N[C@H]1CC[C@@H](n2nncc2-c2ccc(-c3ccc(OC)cc3C)cc2)C1 [Compound A82, N-{(1S,3R)-3-[5-(4′-Methoxy-2′-methyl-biphenyl-4-yl)-[1,2,3]triazol-1-yl]-cyclopentyl}-propionamide] was tested, and the IC50 was < 300 nM.
In the case of CCC(=O)N[C@H]1CC[C@@H](n2nncc2-c2ccc(-c3ccc(C)c(F)c3)cc2)C1 [Compound A83, N-{(1S,3R)-3-[5-(3′-Fluoro-4′-methyl-biphenyl-4-yl)-[1,2,3]triazol-1-yl]-cyclopentyl}-propionamide], the IC50 is reported as < 300 nM.
CCC(=O)N[C@H]1CC[C@@H](n2nncc2-c2ccc(-c3ccc(C)cc3)cc2)C1 [Compound A84, N-{(1S,3R)-3-[5-(4′-Methyl-biphenyl-4-yl)-[1,2,3]triazol-1-yl]-cyclopentyl}-propionamide] was tested, and the IC50 was < 300 nM.
In the case of CCC(=O)N[C@H]1CC[C@@H](n2nncc2-c2ccc(-c3ccc(F)c(Cl)c3)cc2)C1 [Compound A85, N-{(1S,3R)-3-[5-(3′-Chloro-4′-fluoro-biphenyl-4-yl)-[1,2,3]triazol-1-yl]-cyclopentyl}-propionamide], the IC50 is reported as < 300 nM.
CCC(=O)N[C@H]1CC[C@@H](n2nncc2-c2ccc(-c3ccc(OC)cc3OC)cc2)C1 [Compound A86, N-{(1S,3R)-3-[5-(2′,4′-Dimethoxy-biphenyl-4-yl)-[1,2,3]triazol-1-yl]-cyclopentyl}-propionamide] was tested, and the IC50 was < 300 nM.
For CCC(=O)N[C@H]1CC[C@@H](n2nncc2-c2ccc(-c3ccc4[nH]c(=O)[nH]c4c3)cc2)C1 [Compound A87, N-((1S,3R)-3-{5-[4-(2-Oxo-2,3-dihydro-1H-benzimidazol-5-yl)-phenyl]-[1,2,3]triazol-1-yl}-cyclopentyl)-propionamide], the IC50 was < 300 nM.
With CCC(=O)N[C@H]1CC[C@@H](n2nncc2-c2ccc(-c3ccc(OC)c(OC)c3)cc2)C1 [Compound A88, N-{(1S,3R)-3-[5-(3′,4′-Dimethoxy-biphenyl-4-yl)-[1,2,3]triazol-1-yl]-cyclopentyl}-propionamide] the IC50 was < 300 nM.
CCC(=O)N[C@H]1CC[C@@H](n2nncc2-c2ccc(-c3ccc(C)cc3C)cc2)C1 [Compound A89, N-{(1S,3R)-3-[5-(2′,4′-Dimethyl-biphenyl-4-yl)-[1,2,3]triazol-1-yl]-cyclopentyl}-propionamide] was tested, and the IC50 was < 300 nM.
CC1(C)OC[C@@H](C(=O)N[C@H]2CC[C@@H](n3nncc3-c3ccc(-c4nc5ccccc5o4)cc3)C2)O1 [Compound A90, (S)-2,2-Dimethyl-[1,3]dioxolane-4-carboxylic acid {(1S,3R)-3-[5-(4-benzoxazol-2-yl-phenyl)-[1,2,3]triazol-1-yl]-cyclopentyl}-amide] was tested, and the IC50 was < 300 nM.
In the case of CCC(=O)N[C@H]1CC[C@@H](n2nncc2-c2ccc(-c3ccc4c(c3)NC(=O)C4)cc2)C1 [Compound A91, N-((1S,3R)-3-{5-[4-(2-Oxo-2,3-dihydro-1H-indol-6-yl)-phenyl]-[1,2,3]triazol-1-yl}-cyclopentyl)-propionamide], the IC50 is reported as < 300 nM.
With CCC(=O)N[C@H]1CC[C@@H](n2nncc2-c2ccc(-c3ccc(OCC4CC4)cc3)cc2)C1 [Compound A92, N-{(1S,3R)-3-[5-(4′-Cyclopropylmethoxy-biphenyl-4-yl)-[1,2,3]triazol-1-yl]-cyclopentyl}-propionamide] the IC50 was < 300 nM.
O=C(N[C@H]1CC[C@@H](n2nncc2-c2ccc(-c3nc4ccccc4o3)cc2)C1)[C@@H](O)CO [Compound A93, (S)—N-{(1S,3R)-3-[5-(4-Benzoxazol-2-yl-phenyl)-[1,2,3]triazol-1-yl]-cyclopentyl}-2,3-dihydroxy-propionamide] showed an IC50 of 300 to 3000 nM.
In the case of CCC(=O)N[C@H]1CC[C@@H](n2cnnc2-c2ccc(-c3ccc(OC)cc3C)cc2)C1 [Compound A94, N-{(1S,3R)-3-[3-(4′-Methoxy-2′-methyl-biphenyl-4-yl)-[1,2,4]triazol-4-yl]-cyclopentyl}-propionamide], the IC50 is reported as < 300 nM.
In the case of CCC(=O)N[C@H]1CC[C@@H](n2cnnc2-c2ccc(-c3ccc(Cl)c(F)c3)cc2)C1 [Compound A95, N-{(1S,3R)-3-[3-(4′-Chloro-3′-fluoro-biphenyl-4-yl)[1,2,4]triazol-4-yl]-cyclopentyl}-propionamide], the IC50 is reported as < 300 nM.
For CCC(=O)N[C@H]1CC[C@@H](n2cnnc2-c2ccc(-c3ccc(-n4cccn4)cc3)cc2)C1 [Compound A96, N-{(1S,3R)-3-[3-(4′-Pyrazol-1-yl-biphenyl-4-yl)[1,2,4]triazol-4-yl]-cyclopentyl}-propionamide], the IC50 was < 300 nM.
For CCC(=O)N[C@H]1CC[C@@H](n2cnnc2-c2ccc(-c3ccc4c(ccn4C)c3)cc2)C1 [Compound A97, N-((1S,3R)-3-{3-[4-(1-Methyl-1H-indol-5-yl)-phenyl]-[1,2,4]triazol-4-yl}-cyclopentyl)-propionamide], the IC50 was < 300 nM.
CCC(=O)N[C@H]1CC[C@@H](n2cnnc2-c2ccc(-c3cc4cn[nH]c4cc3C)cc2)C1 [Compound A98, N-((1S,3R)-3-{3-[4-(6-Methyl-1H-indazol-5-yl)-phenyl]-[1,2,4]triazol-4-yl}-cyclopentyl)-propionamide] was tested, and the IC50 was < 300 nM.
With CCNC(=O)[C@H]1CC[C@@H](n2nncc2-c2ccc(-c3ccc(C(N)=O)cc3)cc2)C1 [Compound A99, 4′-[3-((1R,3S)-3-Ethylcarbamoyl-cyclopentyl)-3H-[1,2,3]triazol-4-yl]-biphenyl-4-carboxylic acid amide] the IC50 was 300 to 3000 nM.
CCNC(=O)[C@H]1CC[C@@H](n2nncc2-c2ccc(-c3ccc(C(=O)O)cc3)cc2)C1 [Compound A100, 4′-[3-((1R,3S)-3-Ethylcarbamoyl-cyclopentyl)-3H-[1,2,3]triazol-4-yl]-biphenyl-4-carboxylic acid] gave an IC50 of 300 to 3000 nM.
In the case of CCNC(=O)[C@H]1CC[C@@H](n2nncc2-c2ccc(-c3ccc(OC)c(OC)c3)cc2)C1 [Compound A102, (1S,3R)-3-[5-(3′,4′-Dimethoxy-biphenyl-4-yl)-[1,2,3]triazol-1-yl]-cyclopentanecarboxylic acid ethylamide], the IC50 is reported as < 300 nM.
For CCNC(=O)[C@H]1CC[C@@H](n2nncc2-c2ccc(-c3ccc(OCC4CC4)cc3)cc2)C1 [Compound A103, (1S,3R)-3-[5-(4′-Cyclopropylmethoxy-biphenyl-4-yl)-[1,2,3]triazol-1-yl]-cyclopentanecarboxylic acid ethylamide], the IC50 was < 300 nM.
CCNC(=O)[C@H]1CC[C@@H](n2nncc2-c2ccc(-c3ccc(Cl)c(F)c3)cc2)C1 [Compound A104, (1S,3R)-3-[5-(4′-Chloro-3′-fluoro-biphenyl-4-yl)-[1,2,3]triazol-1-yl]-cyclopentanecarboxylic acid ethylamide] was tested, and the IC50 was < 300 nM.
With CCNC(=O)[C@H]1CC[C@@H](n2nncc2-c2ccc(-c3ccc(C#N)c(F)c3)cc2)C1 [Compound A105, (1S,3R)-3-[5-(4′-Cyano-3′-fluoro-biphenyl-4-yl)-[1,2,3]triazol-1-yl]-cyclopentanecarboxylic acid ethylamide] the IC50 was < 300 nM.
For CCNC(=O)[C@H]1CC[C@@H](n2nncc2-c2ccc(-c3ccc(C#N)cc3F)cc2)C1 [Compound A106, (1S,3R)-3-[5-(4′-Cyano-2′-fluoro-biphenyl-4-yl)-[1,2,3]triazol-1-yl]-cyclopentanecarboxylic acid ethylamide], the IC50 was < 300 nM.
With CCC(=O)N[C@H]1CC[C@@H](n2nncc2-c2ccc(-c3ccc4[nH]ccc4c3)nc2)C1 [Compound A107, N-((1S,3R)-3-{5-[6-(1H-Indol-5-yl)-pyridin-3-yl]-[1,2,3]triazol-1-yl}-cyclopentyl)-propionamide] the IC50 was < 300 nM.
In the case of CCC(=O)N[C@H]1CC[C@@H](n2nncc2-c2ccc(-c3ccc4[nH]ccc4c3F)nc2)C1 [Compound A108, N-((1S,3R)-3-{5-[6-(4-Fluoro-1H-indol-5-yl)-pyridin-3-yl]-[1,2,3]triazol-1-yl}-cyclopentyl)-propionamide], the IC50 is reported as < 300 nM.
With CCC(=O)N[C@H]1CC[C@@H](n2nncc2-c2ccc(-c3ccc4nccn4c3)nc2)C1 [Compound A109, N-{(1S,3R)-3-[5-(6-Imidazo[1,2-a]pyridin-6-yl-pyridin-3-yl)-[1,2,3]triazol-1-yl]-cyclopentyl}-propionamide] the IC50 was 300 to 3000 nM.
